This passage reports IC50 results from paper PMC9655899, “Inhibition of Netosis with PAD Inhibitor Attenuates Endotoxin Shock Induced Systemic Inflammation” (International Journal of Molecular Sciences, 2022).

Common to all, as to type: biochemical
For one experiment, the target named is T1, PAD2 (Homo sapiens, UniProt Q9Y2J8).
T1 construct: gene PADI2
In words: PAD enzyme activity assay with purchased human PAD2 (BAEE colorimetric assay described for PAD4).

A further experiment concerns the target T2, mouse PAD4 (Mus musculus, UniProt Q9Z183).
T2 construct: gene Padi4
The experiment in a line: BAEE citrullination colorimetric assay (diacetyl monoxime, A465) with purchased enzyme, […] min preincubation.

The target of a further experiment is T3, human PAD4 (Homo sapiens, UniProt Q9UM07).
T3 construct: gene PADI4
The description is as above.

In the next experiment the target is T4, PAD3 (Homo sapiens, UniProt Q9ULW8).
T4 construct: gene PADI3
T4 sequence (Q9ULW8 1-664): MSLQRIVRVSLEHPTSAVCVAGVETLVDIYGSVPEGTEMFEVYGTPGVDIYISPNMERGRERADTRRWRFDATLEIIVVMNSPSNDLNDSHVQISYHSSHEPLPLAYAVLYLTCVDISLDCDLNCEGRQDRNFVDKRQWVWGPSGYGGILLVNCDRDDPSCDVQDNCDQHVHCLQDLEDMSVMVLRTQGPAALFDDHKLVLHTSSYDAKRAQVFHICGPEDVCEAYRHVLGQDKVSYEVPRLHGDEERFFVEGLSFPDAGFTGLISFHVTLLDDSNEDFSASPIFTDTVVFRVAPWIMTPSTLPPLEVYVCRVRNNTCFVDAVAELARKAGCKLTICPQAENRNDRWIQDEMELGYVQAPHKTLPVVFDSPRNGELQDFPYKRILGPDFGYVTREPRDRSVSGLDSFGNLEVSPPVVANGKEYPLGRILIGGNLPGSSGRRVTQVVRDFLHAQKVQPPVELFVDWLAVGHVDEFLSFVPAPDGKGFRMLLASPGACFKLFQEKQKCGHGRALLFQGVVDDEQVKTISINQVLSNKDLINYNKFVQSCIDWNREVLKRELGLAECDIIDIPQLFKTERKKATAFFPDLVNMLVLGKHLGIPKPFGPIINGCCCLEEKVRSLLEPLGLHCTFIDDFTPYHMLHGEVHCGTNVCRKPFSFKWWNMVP
In words: PAD enzyme activity assay with purchased human PAD3 (BAEE colorimetric assay described for PAD4).

The next experiment deals with T5, PAD1 (Homo sapiens, UniProt Q9ULC6).
T5 construct: gene PADI1
T5 sequence (Q9ULC6 1-663): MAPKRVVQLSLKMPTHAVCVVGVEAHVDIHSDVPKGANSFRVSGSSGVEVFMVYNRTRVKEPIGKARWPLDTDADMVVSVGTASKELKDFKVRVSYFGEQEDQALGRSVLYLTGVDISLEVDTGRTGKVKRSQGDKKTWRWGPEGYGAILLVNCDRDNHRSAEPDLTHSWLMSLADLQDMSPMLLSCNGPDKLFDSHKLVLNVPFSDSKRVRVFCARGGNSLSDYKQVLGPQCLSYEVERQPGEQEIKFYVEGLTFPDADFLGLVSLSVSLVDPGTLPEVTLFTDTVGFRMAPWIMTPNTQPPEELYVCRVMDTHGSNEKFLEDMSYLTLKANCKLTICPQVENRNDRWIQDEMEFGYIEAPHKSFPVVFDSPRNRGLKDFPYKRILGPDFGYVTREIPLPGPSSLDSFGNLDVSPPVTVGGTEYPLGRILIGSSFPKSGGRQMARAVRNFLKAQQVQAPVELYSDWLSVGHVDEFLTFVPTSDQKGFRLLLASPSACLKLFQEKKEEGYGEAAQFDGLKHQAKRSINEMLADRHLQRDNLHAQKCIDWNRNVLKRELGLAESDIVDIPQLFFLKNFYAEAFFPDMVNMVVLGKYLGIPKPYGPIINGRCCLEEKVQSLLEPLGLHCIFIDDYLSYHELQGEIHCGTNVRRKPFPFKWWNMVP
In words: PAD enzyme activity assay with purchased human PAD1 (BAEE colorimetric assay described for PAD4).

T3 sequence (Q9UM07 whole entry): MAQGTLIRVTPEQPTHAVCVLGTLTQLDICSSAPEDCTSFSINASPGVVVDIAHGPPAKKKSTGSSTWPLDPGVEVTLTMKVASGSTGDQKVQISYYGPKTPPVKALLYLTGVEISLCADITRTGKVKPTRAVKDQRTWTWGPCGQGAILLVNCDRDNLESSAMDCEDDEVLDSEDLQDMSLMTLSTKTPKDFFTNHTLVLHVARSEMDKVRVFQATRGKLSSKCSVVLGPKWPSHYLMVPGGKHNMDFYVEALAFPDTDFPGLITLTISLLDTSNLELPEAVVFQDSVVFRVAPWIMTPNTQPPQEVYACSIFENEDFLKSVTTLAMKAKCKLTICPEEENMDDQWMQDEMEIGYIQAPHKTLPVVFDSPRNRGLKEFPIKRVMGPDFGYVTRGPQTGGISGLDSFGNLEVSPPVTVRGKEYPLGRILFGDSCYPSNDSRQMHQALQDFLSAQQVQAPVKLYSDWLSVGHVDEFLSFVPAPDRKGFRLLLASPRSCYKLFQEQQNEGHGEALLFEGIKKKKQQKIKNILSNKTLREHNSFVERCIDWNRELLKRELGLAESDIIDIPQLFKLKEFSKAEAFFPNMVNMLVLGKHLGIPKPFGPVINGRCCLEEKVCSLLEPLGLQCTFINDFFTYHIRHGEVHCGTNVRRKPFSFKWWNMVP
T1 sequence (Q9Y2J8 whole entry): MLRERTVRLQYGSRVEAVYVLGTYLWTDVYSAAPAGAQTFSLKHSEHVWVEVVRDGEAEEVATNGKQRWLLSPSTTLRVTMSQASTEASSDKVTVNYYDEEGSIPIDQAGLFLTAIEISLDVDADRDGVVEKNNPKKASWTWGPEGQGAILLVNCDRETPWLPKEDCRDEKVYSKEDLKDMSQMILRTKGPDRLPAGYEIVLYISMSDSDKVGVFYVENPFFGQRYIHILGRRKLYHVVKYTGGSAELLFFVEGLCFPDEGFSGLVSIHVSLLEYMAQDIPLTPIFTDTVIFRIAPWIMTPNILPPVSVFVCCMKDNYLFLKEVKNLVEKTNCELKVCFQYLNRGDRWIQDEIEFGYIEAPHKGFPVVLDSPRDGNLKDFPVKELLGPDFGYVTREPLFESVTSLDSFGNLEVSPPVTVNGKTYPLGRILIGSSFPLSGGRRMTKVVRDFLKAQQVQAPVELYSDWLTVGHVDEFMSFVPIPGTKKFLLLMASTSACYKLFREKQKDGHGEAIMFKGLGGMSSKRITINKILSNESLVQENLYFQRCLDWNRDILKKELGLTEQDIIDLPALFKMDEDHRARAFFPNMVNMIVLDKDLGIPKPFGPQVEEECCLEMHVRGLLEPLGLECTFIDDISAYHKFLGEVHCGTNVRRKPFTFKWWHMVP
T2 sequence (Q9Z183 whole entry): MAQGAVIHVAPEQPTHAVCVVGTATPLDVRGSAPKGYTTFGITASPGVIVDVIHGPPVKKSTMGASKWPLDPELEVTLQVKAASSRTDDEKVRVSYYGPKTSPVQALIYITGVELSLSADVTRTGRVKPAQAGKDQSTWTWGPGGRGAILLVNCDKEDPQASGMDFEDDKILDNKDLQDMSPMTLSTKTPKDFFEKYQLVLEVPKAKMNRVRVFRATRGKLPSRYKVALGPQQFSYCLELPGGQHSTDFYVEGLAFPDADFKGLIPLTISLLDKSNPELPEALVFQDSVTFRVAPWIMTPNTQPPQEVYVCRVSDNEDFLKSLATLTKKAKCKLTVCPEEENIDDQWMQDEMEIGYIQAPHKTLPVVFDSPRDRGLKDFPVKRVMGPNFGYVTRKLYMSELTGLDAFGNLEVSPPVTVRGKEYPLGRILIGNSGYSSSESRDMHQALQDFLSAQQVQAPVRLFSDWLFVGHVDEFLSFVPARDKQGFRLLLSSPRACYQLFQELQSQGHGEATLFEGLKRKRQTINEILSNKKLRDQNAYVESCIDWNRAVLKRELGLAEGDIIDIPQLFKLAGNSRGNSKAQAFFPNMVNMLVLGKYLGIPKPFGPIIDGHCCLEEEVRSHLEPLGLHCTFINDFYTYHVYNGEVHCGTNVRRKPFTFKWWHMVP

One may read the IC50 as the concentration that inhibits the measured activity by half. A low value points to inhibition by little substance. On to `CN(C)c1ccc2cc(C(=O)N[C@@H](CCCNC(=N)CCl)C(=O)NCc3ccccc3)ccc2c1` [YW3-56], for which the half-maximal inhibitory concentration (IC50) on PAD2 was 6340 nM; against mouse PAD4, 2540 nM; at human PAD4 it was 1190 nM; at PAD3 it was 53400 nM; on PAD1, 1450 nM.
